Results reported in ChEMBL document CHEMBL1201862, “PubChem BioAssay data set” (2004).
Calls of active or inactive are those of the source.

Tests used:
[1] = biological target: T1, Histone-lysine N-methyltransferase NSD2 (Homo sapiens, UniProt O96028); format: biochemical
T1 sequence (O96028 whole entry): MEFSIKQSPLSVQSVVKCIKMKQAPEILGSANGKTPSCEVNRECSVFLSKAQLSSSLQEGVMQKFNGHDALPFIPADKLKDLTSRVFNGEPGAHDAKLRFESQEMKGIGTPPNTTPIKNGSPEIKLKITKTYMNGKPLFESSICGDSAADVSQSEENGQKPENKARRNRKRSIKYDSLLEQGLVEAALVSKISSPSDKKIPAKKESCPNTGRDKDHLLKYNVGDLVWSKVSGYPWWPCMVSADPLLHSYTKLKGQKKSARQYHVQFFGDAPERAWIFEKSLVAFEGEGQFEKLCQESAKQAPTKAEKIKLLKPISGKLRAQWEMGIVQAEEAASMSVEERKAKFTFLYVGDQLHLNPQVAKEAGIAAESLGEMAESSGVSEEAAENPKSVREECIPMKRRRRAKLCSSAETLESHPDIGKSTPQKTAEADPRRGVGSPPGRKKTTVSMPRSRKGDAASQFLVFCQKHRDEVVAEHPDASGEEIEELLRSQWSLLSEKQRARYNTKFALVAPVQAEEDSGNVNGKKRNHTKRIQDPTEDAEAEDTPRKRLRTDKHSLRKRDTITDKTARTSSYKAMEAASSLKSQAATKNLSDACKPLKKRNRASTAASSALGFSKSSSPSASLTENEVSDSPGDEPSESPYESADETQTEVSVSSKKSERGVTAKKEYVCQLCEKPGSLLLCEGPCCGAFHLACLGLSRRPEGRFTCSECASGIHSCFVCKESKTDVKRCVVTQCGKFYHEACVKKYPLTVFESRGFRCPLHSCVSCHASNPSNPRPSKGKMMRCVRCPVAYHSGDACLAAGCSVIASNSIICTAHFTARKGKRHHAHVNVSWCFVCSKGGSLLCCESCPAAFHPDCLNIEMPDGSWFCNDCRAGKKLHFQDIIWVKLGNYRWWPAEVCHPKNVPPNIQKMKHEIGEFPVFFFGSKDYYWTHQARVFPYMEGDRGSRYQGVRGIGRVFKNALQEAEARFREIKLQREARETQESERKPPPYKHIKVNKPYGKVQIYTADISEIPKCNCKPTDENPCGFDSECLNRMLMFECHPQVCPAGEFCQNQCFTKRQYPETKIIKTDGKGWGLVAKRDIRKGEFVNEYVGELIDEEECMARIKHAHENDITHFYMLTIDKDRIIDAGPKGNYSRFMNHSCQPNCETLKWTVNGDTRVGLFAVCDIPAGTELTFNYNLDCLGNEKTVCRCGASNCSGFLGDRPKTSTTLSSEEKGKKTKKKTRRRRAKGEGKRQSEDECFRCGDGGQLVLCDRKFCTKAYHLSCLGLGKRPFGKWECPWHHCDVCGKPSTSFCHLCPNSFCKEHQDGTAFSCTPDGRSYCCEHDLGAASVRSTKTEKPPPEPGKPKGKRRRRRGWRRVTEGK

H4 = experiment: Luminescence Cell-Based Dose Response HTS to Identify Activators of 5'UTR Stem-Loop Driven Prion Protein mRNA Translation in H4 Neuroglioblastoma Cells. [Related pubchem assays: 1829 (Project Summary), 1814 (Primary HTS)]; format: functional; details: Homo sapiens
[2] = Luminescence Cell-Based Dose Confirmation HTS to Identify Activators of 5'UTR Stem-Loop Driven Alpha-Synuclein mRNA Translation in H4 Neuroglioblastoma Cells. [Related pubchem assays: 1829 (Project Summary), 1814 (Primary HTS)]; format: functional
[3] = reduction of Shn3 3'UTR-driven luciferase in osteoblasts – cell-based, Clone20 osteoblasts, firefly luciferase, cherry-picked, dose response (AID 624132); format: functional;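 also: firefly luciferase luminescence from reporter carrying the Shn3 3'UTR in osteoblasts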
Jurkat = experiment: SAR Analysis of small molecule inhibitors of T-cell specific antigen receptor-induced NF-kB activation in a Jurkat cell line using a luminescence assay - Set 2. [Related pubchem assays (depositor defined):AID435003, AID435012, AID465]; format: functional, cell-based; details: Homo sapiens
[4] = loss of viability in HepG2 cells – cell-based, CellTiter-Glo, cherry-picked, cytotoxicity control for Shn3 inhibitor project, dose response (AID 624134); format: functional
[5] = Counterscreen for AddAB inhibitors: absorbance-based bacterial cell-based high throughput dose response assay for inhibitors of bacterial viability. [Related pubchem assays (depositor defined):AID435030, AID449728, AID449731, AID488942, AID488955, AID488956]; format: functional
cells = format: functional, cell-based
HEK293 [6] = experiment: HEK293T cell viability loss, resazurin readout – resazurin fluorescence, cytotoxicity control for NF-kB activator project, SAR follow-up (AID 493251); format: functional, cell-based
[7] = biological target: Heat shock protein HSP 90-alpha (Homo sapiens, UniProt P07900); format: functional, organism-based
HEK293 [8] = experiment: SAR Analysis of small molecule inhibitors of T-cell specific antigen receptor-induced NF-kB activation in a HEK-293T cell line using a luminescence assay - Set 2. [Related pubchem assays (depositor defined):AID435003, AID435012, AID489026]; format: functional, cell-based; details: Homo sapiens
[9] = biological target: Ribosomal protein S6 kinase beta-1 (Homo sapiens, UniProt P23443); format: functional;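 also: measured as one member of a kinome-wide profiling panel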
Streptokinase A = biological target: T2, Streptokinase A (Streptococcus pyogenes serotype M1, UniProt P10520); experiment: viability-normalized secreted streptokinase activity reduction – plasminogen activation absorbance, OD405, dose response (AID 1914); format: functional, Streptococcus pyogenes M1 GAS;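 also: secreted streptokinase activity via plasminogen activation per viability signal from cell pellet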
T2 sequence (P10520 whole entry): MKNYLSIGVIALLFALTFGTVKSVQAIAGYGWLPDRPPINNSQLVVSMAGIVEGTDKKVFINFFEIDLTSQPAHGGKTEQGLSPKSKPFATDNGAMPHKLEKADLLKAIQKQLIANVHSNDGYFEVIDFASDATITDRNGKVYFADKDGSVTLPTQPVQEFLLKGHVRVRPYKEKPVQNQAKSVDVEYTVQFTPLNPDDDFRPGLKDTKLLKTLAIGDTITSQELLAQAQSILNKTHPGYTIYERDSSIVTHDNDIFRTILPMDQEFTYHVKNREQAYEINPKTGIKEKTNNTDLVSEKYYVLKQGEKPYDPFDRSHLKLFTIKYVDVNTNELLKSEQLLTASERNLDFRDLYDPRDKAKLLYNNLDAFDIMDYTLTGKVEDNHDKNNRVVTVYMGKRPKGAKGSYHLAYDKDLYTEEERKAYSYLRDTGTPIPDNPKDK

[10] = biological target: Eukaryotic translation initiation factor 4E (Mus musculus, UniProt P63073); experiment: blockers of eIF4G binding by eIF4E – biochemical, TR-FRET, dose response (AID 855); format: functional;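 also: potency for disrupting eIF4E binding to eIF4GI seen as loss of FRET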
Streptococcus = experiment: GAS UMAA2166 growth inhibition – luminescence, BacTiterGlo, counter-screen for streptokinase expression inhibitor project, dose response (AID 1915); format: functional, organism-based;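 also: potency for reduction of bacterial viability or growth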
[11] = tested on: Streptococcus sp. 'group A'; experiment: Streptococcus pyogenes SK(-)GAS viability under kanamycin – luminescence, BacTiterGlo, confirmation, counter-screen for streptokinase expression inhibitor project, dose response (AID 1900); format: functional, organism-based

Eukaryotic translation initiation factor 4E, sequence (P63073 whole entry): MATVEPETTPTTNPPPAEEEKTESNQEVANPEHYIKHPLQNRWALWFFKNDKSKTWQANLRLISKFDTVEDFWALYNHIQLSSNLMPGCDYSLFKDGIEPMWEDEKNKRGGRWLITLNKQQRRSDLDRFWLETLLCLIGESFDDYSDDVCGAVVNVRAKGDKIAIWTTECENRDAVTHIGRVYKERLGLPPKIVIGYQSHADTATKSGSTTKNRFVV
Ribosomal protein S6 kinase beta-1, sequence (P23443 whole entry): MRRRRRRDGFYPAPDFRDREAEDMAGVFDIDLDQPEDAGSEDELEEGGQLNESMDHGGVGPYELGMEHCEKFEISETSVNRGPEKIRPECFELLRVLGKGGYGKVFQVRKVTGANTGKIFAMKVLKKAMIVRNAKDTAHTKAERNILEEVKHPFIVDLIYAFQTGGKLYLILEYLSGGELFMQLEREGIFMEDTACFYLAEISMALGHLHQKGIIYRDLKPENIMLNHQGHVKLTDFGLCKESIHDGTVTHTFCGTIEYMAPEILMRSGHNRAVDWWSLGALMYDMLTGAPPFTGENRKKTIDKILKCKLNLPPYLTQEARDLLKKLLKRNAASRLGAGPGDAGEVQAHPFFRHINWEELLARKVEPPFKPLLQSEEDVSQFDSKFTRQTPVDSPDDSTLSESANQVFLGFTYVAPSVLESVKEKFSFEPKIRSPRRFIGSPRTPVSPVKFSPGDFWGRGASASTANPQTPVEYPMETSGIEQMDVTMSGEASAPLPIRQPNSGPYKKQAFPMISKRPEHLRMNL

Row | Structure (SMILES) | AC50 [1] | EC50 (H4) | EC50 [2] | AC50 [3] | IC50 (Jurkat) | AC50 [4] | IC50 [5] | EC50 (cells) | IC50 (HEK293 [6]; Homo sapiens, HEK293) | AC50 [7] | IC50 (HEK293 [8]) | EC50 (Streptokinase A) | IC50 [10] | EC50 (Streptococcus) | EC50 [11] | other results
1 | CC(=O)N(/N=C1\Sc2ccccc2C1=O)c1ccccc1C | 0.548 µM (active) | 33.4 µM (active) | 2.51 µM (active) |  |  |  |  |  |  |  |  |  |  |  |  | 
2 | CCC(=O)NC(c1ccc(C)cc1)c1ccc2cccnc2c1O (configuration not stated) |  |  |  | 0.704 µM (active) | 3.26 µM (active) | 1.24 µM (active) | > 119 µM (inactive) | > 350 µM (not active) | 12.9 µM (active) | 3.35 µM (active) | 7.02 µM (active) |  |  |  |  | 
3 | Cc1cccc(NC(=O)Nc2ccc3c(c2)CCc2sc4ncnc(N)c4c2-3)c1 |  |  |  |  |  |  |  |  |  |  |  |  |  |  |  | Ki [9]: 0.0398 µM (active)
4 | Cc1ccc(-n2sc3ccccc3c2=O)cc1 |  | 88.2 µM (active) | > 120 µM (not active) |  |  |  |  |  |  |  |  | > 150 µM (not active) | 15.2 µM (active) | 3.63 µM (active) | 1.02 µM (active) | 
5 | CCCC(=O)NC(c1ccc(Cl)cc1)c1ccc2cccnc2c1O (configuration not stated) |  |  |  | 0.937 µM (active) | 2.84 µM (active) | 1.17 µM (active) | > 119 µM (inactive) | > 350 µM (not active) | 8.63 µM (active) | 4.04 µM (active) | 4.23 µM (active) | > 150 µM (not active) |  | 30.1 µM (active) | 2.17 µM (active) | IC50 (HEK293 [6]; hek293): 9.55 µM (active)
6 | N/C(=N\N=C/c1ccc(-c2ccc(O)c(C(=O)O)c2)o1)N[N+](=O)[O-] | 7.57 µM (active) |  |  |  |  |  |  |  |  |  |  |  | 63.6 µM (inactive) |  |  | 
